Reference: US10196556B2, “Surfactant composition” (RHODIA OPERATIONS, priority 2012, dated 2019)
Read-outs that look alike come from different tables or passages of the source.

Experiment: Static foam test (Waring blender), foam persistence
Type: physicochemical
Conditions: for Foam Volume: ambient temperature; for Foam Quality (%): from flash foam volume and 200 ml solution volume
Method: In order to perform static foam testing, 10% aqueous stock solutions of the surfactant compositions were prepared in distilled water. These were added to 10% w/w aqueous sodium chloride solution, such that the concentration of the surfactant in the brine was 1000 ppm.
Surfactant compositions according to the invention were benchmarked against the individual surfactants. A Waring type blender was used.
The flash foam volumes were measured by taking 200 ml of a surfactant composition according to the invention, subjecting it to high shear for 30 seconds at ambient temperature (20° C.) and then transferring the foam immediately to a measuring cylinder (1000 ml) for measurement. This initial volume was the flash volume. The foam and liquid volume was monitored for a further 10 minutes.
The ‘half-life’ of the foam was defined as the time taken for 100 ml of fluid to drain from the foam. Without being bound by theory, an increase in the half-life corresponds to a reduction in the liquid drainage rate and reflects the texture of the foam. Denser foams, as a rule, tend to take longer to drain and therefore are more persistent.
Static foam tests are a rapid and relatively straightforward method to screen the foam performance of surfactants. The method provides information on the stability and quality, i.e. texture (structure), of the foam produced in a Waring blender. The mechanical properties of the foam lamellae and foam structure are determined to some extent by the packing of the surfactant molecules at the gas/liquid interface. The foam structure influences liquid drainage rates and therefore, the persistence or stability of the foam.
Surfactant solutions (200 ml) were subjected to high shear for 30 seconds at ambient temperatures and the foam transferred immediately to a measuring cylinder (1000 ml). The foam and liquid volume was monitored for a further 10 minutes. 10% active aqueous stock solutions of the surfactants were prepared in distilled water and these were added to 10% w/w aqueous sodium chloride solution. The concentration of the surfactant in the brine was 1000 ppm.
The initial foam volume is also called the ‘flash’ foam.

[1] = 0 s (flash foam), 1000 ppm surfactant in 10% w/w NaCl
[2] = 120 s, 1000 ppm surfactant in 10% w/w NaCl
[3] = 240 s, 1000 ppm surfactant in 10% w/w NaCl
[4] = 360 s, 1000 ppm surfactant in 10% w/w NaCl
[5] = 480 s, 1000 ppm surfactant in 10% w/w NaCl
[6] = 600 s, 1000 ppm surfactant in 10% w/w NaCl
[7] = 1000 ppm surfactant in 10% w/w NaCl
[8] = time for 100 ml of fluid to drain from the foam, 1000 ppm surfactant in 10% w/w NaCl

## Lauramidopropyl betaine [Mackam LMB]
[1]
  Foam Volume: 670 mL
[2]
  Foam Volume: 524 mL
[3]
  Foam Volume: 486 mL
[4]
  Foam Volume: 430 mL
[5]
  Foam Volume: 360 mL
[6]
  Foam Volume: 350 mL
[7]
  Foam Quality (%): 70.1%
[8]
  Half-life: 4.5 min

## Lauramidopropyl hydroxysultaine [Mackam LSB-50]
[1]
  Foam Volume: 600 mL
[2]
  Foam Volume: 406 mL
[3]
  Foam Volume: 350 mL
[4]
  Foam Volume: 280 mL
[5]
  Foam Volume: 240 mL
[6]
  Foam Volume: 210 mL
[7]
  Foam Quality (%): 66.7%
[8]
  Half-life: 3.2 min

## Sodium hydroxypropyl sulfonate lauryl glucose crosspolymer [PolySugaNate 160P]
  Half-life: 0.4 min
